Earlier results as cited in US7621907B2, “Implantable drug delivery system” (Alcon, Inc., priority 2002, dated 2009).
Counter-ions that a name gives are not always drawn.

Conditions: descriptive statement, no test described

| Compound | water solubility |
| --- | --- |
| CC(C)NCC(O)COc1ccc(CCOCC2CC2)cc1 (centres unmarked) [betaxolol HCl] | relatively high |
| NC(=O)Cc1cccc(C(=O)c2ccccc2)c1N [nepafenac] | relatively low |
